donors, wells and Peptide exchange data for 3 substances are collected here from US10745460B2, “Peptides and combination of peptides for use in immunotherapy against various tumors” (Immatics Biotechnologies GmbH, priority 2015, dated 2020).

In one test the test system is CD8+ T cells. In words: In vitro T-cell priming assay with aAPCs loaded with peptide/MHC complexes and anti-CD28 antibody (in vitro immunogenicity). In kind it is cell-based, human. The settings on record: healthy HLA-A*02 donors. The text has this: In order to obtain information regarding the immunogenicity of the TUMAPs of the present invention, the inventors performed investigations using an in vitro T-cell priming assay based on repeated stimulations of CD8+ T cells with artificial antigen presenting cells (aAPCs) loaded with peptide/MHC complexes and anti-CD28 antibody.
In order to perform in vitro stimulations by artificial antigen presenting cells loaded with peptide-MHC complex (pMHC) and anti-CD28 antibody, the inventors first isolated CD8+ T cells from fresh HLA-A*02 leukapheresis products via positive selection using CD8 microbeads (Miltenyi Biotec, Bergisch-Gladbach, Germany) of healthy donors obtained from the University clinics Mannheim, Germany, after informed consent. […] Generation of pMHC/anti-CD28 coated beads, T-cell stimulations and readout was performed in a highly defined in vitro system using four different pMHC molecules per stimulation condition and 8 different pMHC molecules per readout condition. […]
800.000 beads/200 μl were coated in 96-well plates in the presence of 4×12.5 ng different biotin-pMHC, washed and 600 ng biotin anti-CD28 were added subsequently in a volume of 200 μl. […] Peptide specific cells were calculated as percentage of total CD8+ cells. […] In vitro priming of specific multimer+ CD8+ lymphocytes was detected by comparing to negative control stimulations. […]

In a further test the target is HLA-A*02:01 (Homo sapiens, UniProt P04439, D140Y/D185E/D98H/E176V/E277Q/G131W/G231S/I119V/I121R/I166T/I218V/L300P/L318F/N151K/N90K/P208A/P217A/Q86G/Q94H/R138H/R169H/T345S). Nature of the test: MHC binding assay: UV-ligand exchange with β2m ELISA (peptide exchange yield). The settings on record: binding to HLA-A*02:01 evaluated by peptide exchange yield (UV-ligand exchange, β2m ELISA). In short, it runs like this:
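Peptide–MHC complexes formed by UV-ligand exchange, cleaving a UV-sensitive peptide so the test peptide can bind. Exchange yield measured by ELISA: complexes captured on streptavidin-coated wells, diluted 100-fold, detected with HRP anti-β2m (1 h, 37 °C) and TMB at 450 nm, against refolded HLA-A*02:01/MLA-001 standards (15-500 ng/ml).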
(In general: An ELISA detects its analyte on a solid surface through an enzyme-linked reagent.)

As to “288 (SLYKGLLSV; listed as Homo sapiens) [compound 288]”, the donors result in the test on CD8+ T cells (percentage of positive donors) is given as “++++ (>=70% = ++++)”. With “287 (KIQEILTQV; listed as Homo sapiens) [compound 287]”, in the test with CD8+ T cells (percentage of positive wells), the wells result is given as “+ (<20% = +)”. Turning to “254 (ALGDKFLLRV; listed as Homo sapiens) [compound 254]”, the Peptide exchange entry with HLA-A*02:01 is reported as “++ (≥20% = ++)”.
